Earlier results as cited in patent US20250312496A1, “PROSTATE SPECIFIC MEMBRANE ANTIGEN (PSMA) LIGANDS” (Deutsches Krebsforschungszentrum Stiftung des öffentlichen …, priority 2022, published 2025).

System: prostate cancer

In the case of `O=C(O)CC[C@H](NC(=O)N[C@@H](CCCCNC(=O)[C@H](Cc1ccc2ccccc2c1)NC(=O)[C@H]1CC[C@H](CNC(=O)CN2CCN(CC(=O)O)CCN(CC(=O)O)CCN(CC(=O)O)CC2)CC1)C(=O)O)C(=O)O` [225Ac-PSMA-617, metal not drawn], the PSA value (both patients) is given as “fell below the detectability limit” and the response of patients (two patients with extremely advanced and end-stage disease) is given as “complete remission”.
